Calls of active or inactive are those of the source. No cut-off for these calls is given here.

Among the data in ChEMBL document CHEMBL1137418, “Neurosteroid analogues. 11. Alternative ring system scaffolds: gamma-aminobutyric acid receptor modulation and anesthetic actions of benz[f]indenes” (J Med Chem, 2006) are Activity and Ratio values, retold here.

Assay [1] is filed under the species Xenopus laevis. Description: Loss of righting reflex in Xenopus laevis tadpole at 10 uM. The format is functional, organism-based.
For assay [2], the target named is T1, GABA-A receptor; alpha-1/beta-2/gamma-2 (Rattus norvegicus) (UniProt P18508+P62813+P63138). As to the kind of experiment: Activity at rat GABA-Aalpha1 receptor plus beta-2-gamma-2L expressed in Xenopus laevis oocyte assessed as ratio of GABA-mediated current in presence to absence of compound at 10 uM. The format is functional.
The species named for assay [3] is Xenopus laevis. As to the kind of experiment: Loss of swimming reflex in Xenopus laevis tadpole at 10 uM. The format is functional, organism-based.
For assay [4], the target named is T1, GABA-A receptor; alpha-1/beta-2/gamma-2 (Rattus norvegicus). Description: Activity at rat GABA-Aalpha1 receptor plus beta-2-gamma-2L expressed in Xenopus laevis oocyte assessed as ratio of GABA-mediated current in presence to absence of compound at 0.1 uM. The format is functional.
Assay [5] shares this target. Description: Activity at rat GABA-Aalpha1 receptor plus beta-2-gamma-2L expressed in Xenopus laevis oocyte assessed as ratio of current evoked by compound alone in absence of GABA to current evoked by 2 uM GABA at 10 uM.
Assay [6] shares this target. As to the kind of experiment: Activity at rat GABA-Aalpha1 receptor plus beta2gamma2L expressed in Xenopus laevis oocyte assessed as ratio of GABA-mediated current in presence to absence of compound at 1 uM. The format is functional.

`C[C@]12C[C@H]3CC[C@@H](CCO)CC3C[C@@H]1CCC2=O` (single isomer, unassigned; 1c): the result in the assay listed under Xenopus laevis [1] and in the assay listed under Xenopus laevis [3] was inactive. Besides, the Ratio in assay [2] is 1.02; in assay [4], 0.93; in assay [5], -0.01; in assay [6] it was 0.9.
